The source made the active and inactive calls. The rule behind the calls is not given here.
Columns and labels:
[1] = molecular target: Histamine H1 receptor (Cavia porcellus) (UniProt P31389); experiment: Antagonist activity at histamine H1 receptor in guinea pig ileum assessed as inhibition of histamine-induced contraction at 10 nM treated for 15 mins prior to histamine challenge; type: tissue-based
[2] = molecular target: Histamine H1 receptor (Cavia porcellus) (UniProt P31389); experiment: Antagonist activity at histamine H1 receptor in guinea pig ileum assessed as inhibition of histamine-induced contraction treated for 15 mins prior to histamine challenge; type: tissue-based
[3] = molecular target: Histamine N-methyltransferase (Cavia porcellus, UniProt Q9EST2); experiment: Inhibition of histamine N-methyltransferase in guinea pig brain using S-adenosyl-L-methionine-14C as substrate by scintillation spectrophotometer
Chain of Histamine N-methyltransferase (Q9EST2 whole entry): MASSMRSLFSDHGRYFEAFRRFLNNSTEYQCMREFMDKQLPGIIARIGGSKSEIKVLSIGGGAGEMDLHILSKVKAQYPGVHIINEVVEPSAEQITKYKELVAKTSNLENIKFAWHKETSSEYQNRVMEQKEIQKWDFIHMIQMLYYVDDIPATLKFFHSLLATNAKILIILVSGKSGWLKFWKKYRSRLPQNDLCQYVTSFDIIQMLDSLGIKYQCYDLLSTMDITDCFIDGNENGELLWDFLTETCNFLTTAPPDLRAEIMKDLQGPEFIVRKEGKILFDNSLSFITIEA

[4] = system: Ileum; experiment: Inhibition of barium chloride-induced contraction in guinea pig ileum at 2 uM; type: functional; settings: Cavia porcellus
[5] = system: Ileum; experiment: Inhibition of acetylcholine-induced contraction in guinea pig ileum treated for 15 mins prior to acetylcholine challenge; type: functional; settings: Cavia porcellus, read-out: ED50 (the source's name)
[6] = system: Ileum; experiment: Inhibition of acetylcholine-induced contraction in guinea pig ileum at 0.1 uM treated for 15 mins prior to acetylcholine challenge; type: functional, tissue-based; settings: Cavia porcellus
[7] = molecular target: Histamine H1 receptor (Cavia porcellus) (UniProt P31389); experiment: Antagonist activity at histamine H1 receptor in guinea pig ileum assessed as inhibition of histamine-induced contraction at 0.1 uM treated for 15 mins prior to histamine challenge; type: tissue-based
[8] = molecular target: Histamine H1 receptor (Cavia porcellus) (UniProt P31389); experiment: Antagonist activity at histamine H1 receptor in guinea pig ileum assessed as inhibition of histamine-induced contraction at 50 nM treated for 15 mins prior to histamine challenge; type: tissue-based
[9] = system: Ileum; experiment: Inhibition of barium chloride-induced contraction in guinea pig ileum at 5 uM; type: functional; settings: Cavia porcellus

Chain of Histamine H1 receptor (Cavia porcellus) (P31389 whole entry): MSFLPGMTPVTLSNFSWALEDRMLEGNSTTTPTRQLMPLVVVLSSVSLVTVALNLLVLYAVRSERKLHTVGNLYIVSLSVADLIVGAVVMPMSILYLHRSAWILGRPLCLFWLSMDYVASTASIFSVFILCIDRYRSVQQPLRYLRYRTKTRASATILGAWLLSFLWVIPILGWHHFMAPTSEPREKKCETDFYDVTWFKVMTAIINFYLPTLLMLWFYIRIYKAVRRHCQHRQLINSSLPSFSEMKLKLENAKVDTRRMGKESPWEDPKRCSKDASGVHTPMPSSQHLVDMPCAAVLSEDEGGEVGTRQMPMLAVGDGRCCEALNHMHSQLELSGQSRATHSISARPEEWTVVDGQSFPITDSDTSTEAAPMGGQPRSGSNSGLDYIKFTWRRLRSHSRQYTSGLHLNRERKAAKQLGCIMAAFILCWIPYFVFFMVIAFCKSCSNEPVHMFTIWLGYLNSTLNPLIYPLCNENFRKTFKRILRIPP

| SMILES | ED50 [2] | Ki [3] | EC50 [5] | other results |
| --- | --- | --- | --- | --- |
| CN(C)[C@H]1C[C@H](c2ccccc2)N(c2ccccc2)C1 (relative stereo) |  |  |  | inhibition [1]: 85% |
| CN(C)CCN(Cc1ccccc1)c1ccccn1 |  |  |  | inhibition [6]: inactive; inhibition [7]: 66% |
| CN(C)[C@@H]1C[C@H](c2ccccc2)N(c2ccccc2)C1 (relative stereo) |  |  |  | inhibition [8]: 45% |

The next lines start with results.

| ED50 [2] | Ki [3] | EC50 [5] | SMILES | other results |
| --- | --- | --- | --- | --- |
| 1.83 µM | 31.6 µM | 1.45 µM | CN(C)[C@@H]1CC[C@H](c2ccccc2)N(Cc2ccccc2)C1 (relative stereo) | inhibition at 2 µM [4]: 50% |
| 6.72 µM | 247 µM | 2.9 µM | CN(C)[C@H]1CC[C@H](c2ccccc2)N(Cc2ccccc2)C1 (relative stereo) | inhibition at 5 µM [9]: 39% |
